# Patent US9562268B2, “Risk assessment for adverse drug reactions” (Academia Sinica, priority 2003, dated 2017)
# Like-named read-outs stand apart in the source and are kept apart here.
# Tests used:
# HLA-B*4601 = system: HLA-B*4601
# Experimental: (§1) A total of 112 SJS/TEN patients were recruited either from Chang Gung Memorial Hospital or from several other medical centers throughout Taiwan. […] Drug taking history including dosage and duration, and the phenotypes of adverse drug reactions were recorded. The diagnostic criteria of clinical morphology were defined according to Roujeau (Roujeau J C, 1994). We define SJS as skin detachment of less than 10% of body-surface area, overlap SJS-TEN as skin detachment of 10-30%, and TEN as greater than 30%. SJS, overlap SJS-TEN and TEN are collectively referred to as SJS/TEN.
# (§2) 73 tegretol-tolerant patients were included as controls. Volunteers from the general population of Taiwanese (n=94; age range: 20 to 80 years) were also recruited. The study was approved by the institutional review board, and informed consent was obtained.
# (§3) Reagents for reverse lineblot sequence-specific oligonucleotide (SSO) were purchased from DYNAL Biotech Ltd. (Bromborough, UK) and used for HLA genotyping. Briefly, a PCR product was generated using biotinylated primer pairs for the second and the third exons of the HLA class I or class II loci, and then hybridized to a lineblot of SSO of probes immobilized on a nylon membrane. The presence of biotinylated PCR product bound to a specific probe is detected using streptavidin-horseradish peroxidase (HRP) and a chromogenic, soluble substrate to produce a blue “line” at the position of the positive probe. The probe reactivity pattern was interpreted by the genotyping software Dynal RELI™ SSO (DYNAL Biotech Ltd.; Bromborough, UK). Potential ambiguities were further resolved by sequence-based typing and DNA sequencing performed according to the IHWG Technical Manual (International Histocompatibility Working Group).
# Allele frequencies in the different groups were compared by the Chi-square method with Yates correction by constructing 2×2 tables. P values were corrected for comparisons of multiple HLA alleles (Pc) by multiplying the raw P values by the observed number of HLA alleles present within the loci. Odds ratios were calculated with Haldane's modification, which adds 0.5 to all cells to accommodate possible zero counts.
# HLA-DRB1*1202 = test: Equivalent genetic marker incidence in patients with ADRs: HLA-DRB1*1202; type: in vivo, human; details: SJS/TEN patients who received the drug
# Experimental: as §1, §2
# (§4) Reagents for reverse lineblot sequence-specific oligonucleotide (SSO) were purchased from DYNAL Biotech Ltd. (Bromborough, UK) and used for HLA genotyping. […] The presence of biotinylated PCR product bound to a specific probe is detected using streptavidin-horseradish peroxidase (HRP) and a chromogenic, soluble substrate to produce a blue “line” at the position of the positive probe. […]
# HLA-A*1101 = test: Equivalent genetic marker incidence in patients with ADRs: HLA-A*1101; type: in vivo, human; details: SJS/TEN patients who received the drug
# Experimental: as §1, §2, §4
# HLA-Cw*0801 = details: human, in vivo
# Experimental: as §1, §2, §3
# HLA-Cw*0806 = details: human, in vivo
# Experimental: as §1, §2, §3
# HLA-Cw*0302 = details: human, in vivo
# Experimental: as §1, §2, §3
# [1] = patients with milder cutaneous reactions to the drug (n = 16)
HLA-B*4601 frequency (HLA-B*4601; [1]),Number of patients carrying HLA-B*4601 (HLA-B*4601; [1]),HLA-Cw*0801 frequency (HLA-Cw*0801),Number of patients carrying HLA-Cw*0801 (HLA-Cw*0801),HLA-Cw*0806 frequency (HLA-Cw*0806),Number of patients carrying HLA-Cw*0806 (HLA-Cw*0806),HLA-Cw*0302 frequency (HLA-Cw*0302),Number of patients carrying HLA-Cw*0302 (HLA-Cw*0302),Structure (SMILES),HLA-B*4601 frequency (HLA-B*4601; drug-tolerant group (n = 73)),Number of patients carrying HLA-B*4601 (HLA-B*4601; drug-tolerant group (n = 73)),"odds ratio, B*4601 associated drug-induced milder cutaneous ADRs (HLA-B*4601; versus drug-tolerant group)",HLA-DRB1*1202 frequency (HLA-DRB1*1202),Number of patients carrying HLA-DRB1*1202 (HLA-DRB1*1202),HLA-A*1101 frequency (HLA-A*1101),Number of patients carrying HLA-A*1101 (HLA-A*1101)
62.5%,10,,,,,,,NC(=O)N1c2ccccc2C=Cc2ccccc21 [carbamazepine],26%,19,4.73,83.3%,35,73.8%,31
,,11.7%,2,0(0%),0(0%),82%,14,Oc1ncnc2[nH]ncc12 [allopurinol],,,,,,,
